Results as given in patent publication US9562035B2, “Benzamide derivative useful as FASN inhibitors for the treatment of cancer” (Janssen Pharmaceutica NV, priority 2013, dated 2017).
pIC50: −log10 of the molar value.

Experiments:
[1] = target: T1, hFASN enzyme (full length) (Homo sapiens, UniProt P49327); experiment: Fatty Acid Synthase (FASN) Inhibition Scintillation Proximity Assay; type: biochemical; conditions: for pIC50: mean where tested more than once, ~ = standard error of pIC50 larger than 0.5; for inhibition at 10 µM: read-out: FASN % Effect @1E−05M
T1 construct: 10 μL hFASN enzyme (full length, 300 ng, purified in house); made in house
Outline: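 Purified full-length human FASN (300 ng) incubated 60 min at room temperature with NADPH, [3H]-acetyl-CoA and malonyl-CoA in 100 mM KH2PO4 pH 7.5, 1 mM DTT; compound at 30 μM to 0.01 μM. [3H]-palmitate captured by SPA imaging beads; IC50 from 4-parameter fit, reported as pIC50.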

[2] = target: T2, FASN Keto-reductase Domain (Homo sapiens, UniProt P49327); experiment: Fatty Acid Synthase Keto-Reductase Domain (FASN KR) Inhibition; type: biochemical; conditions: mean where tested more than once; read-out: FASN K-R Domain pIC50 (converted)
T2 construct: 10 μL hFASN enzyme (full length, 300 ng, purified in house) and 360 μM NADPH; made in house
Outline: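 Full-length human FASN (300 ng) in 100 mM KH2PO4 pH 7.5 with 360 μM NADPH and 180 mM ethyl acetoacetate (stock); A340 decrease read over 20 min at room temperature.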

[3] = system: A2780 ovarian cells; experiment: A2780 Ovarian Cell Proliferation Assay in Lipid Reduced Medium, without Palmitate; type: cell-based; conditions: Homo sapiens, A2780; lipid reduced medium, without palmitate, 96 h, MTT; read-out: Proliferation A2780 w/o Palmitate pIC50 (converted)
Outline: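 A2780 cells were seeded in 10% FCS medium and switched next day to 10% lipid-reduced serum without palmitate. Compounds at 0.01–30 μM were added with 0.2% DMSO, 0.2% fatty-acid-free BSA and 0.25% ethanol final. After 96 h, MTT absorbance at 544 nm was normalized to plate controls, and IC50/pIC50 came from a 4-parameter logistic fit.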

[4] = system: A2780 ovarian cells; experiment: A2780 Ovarian Cell Proliferation Assay in Lipid Reduced Medium, with Palmitate (control); type: cell-based; conditions: Homo sapiens, A2780; lipid reduced medium, 25 μM palmitate, 96 h, MTT; read-out: Proliferation A2780 with Palmitate pIC50 (converted)
Outline: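 A2780 cells were seeded in RPMI1640 with 10% FCS, then switched next day to medium with 10% lipid-reduced serum. Compound was added with final 25 μM palmitate, 0.2% fatty-acid-free BSA and 0.2% DMSO, and incubated 96 h at 37 °C. Read-out was MTT absorbance at 544 nm; pIC50 = −log(IC50) from curve fit.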

T2 sequence (P49327 whole entry, the tested form may be a part): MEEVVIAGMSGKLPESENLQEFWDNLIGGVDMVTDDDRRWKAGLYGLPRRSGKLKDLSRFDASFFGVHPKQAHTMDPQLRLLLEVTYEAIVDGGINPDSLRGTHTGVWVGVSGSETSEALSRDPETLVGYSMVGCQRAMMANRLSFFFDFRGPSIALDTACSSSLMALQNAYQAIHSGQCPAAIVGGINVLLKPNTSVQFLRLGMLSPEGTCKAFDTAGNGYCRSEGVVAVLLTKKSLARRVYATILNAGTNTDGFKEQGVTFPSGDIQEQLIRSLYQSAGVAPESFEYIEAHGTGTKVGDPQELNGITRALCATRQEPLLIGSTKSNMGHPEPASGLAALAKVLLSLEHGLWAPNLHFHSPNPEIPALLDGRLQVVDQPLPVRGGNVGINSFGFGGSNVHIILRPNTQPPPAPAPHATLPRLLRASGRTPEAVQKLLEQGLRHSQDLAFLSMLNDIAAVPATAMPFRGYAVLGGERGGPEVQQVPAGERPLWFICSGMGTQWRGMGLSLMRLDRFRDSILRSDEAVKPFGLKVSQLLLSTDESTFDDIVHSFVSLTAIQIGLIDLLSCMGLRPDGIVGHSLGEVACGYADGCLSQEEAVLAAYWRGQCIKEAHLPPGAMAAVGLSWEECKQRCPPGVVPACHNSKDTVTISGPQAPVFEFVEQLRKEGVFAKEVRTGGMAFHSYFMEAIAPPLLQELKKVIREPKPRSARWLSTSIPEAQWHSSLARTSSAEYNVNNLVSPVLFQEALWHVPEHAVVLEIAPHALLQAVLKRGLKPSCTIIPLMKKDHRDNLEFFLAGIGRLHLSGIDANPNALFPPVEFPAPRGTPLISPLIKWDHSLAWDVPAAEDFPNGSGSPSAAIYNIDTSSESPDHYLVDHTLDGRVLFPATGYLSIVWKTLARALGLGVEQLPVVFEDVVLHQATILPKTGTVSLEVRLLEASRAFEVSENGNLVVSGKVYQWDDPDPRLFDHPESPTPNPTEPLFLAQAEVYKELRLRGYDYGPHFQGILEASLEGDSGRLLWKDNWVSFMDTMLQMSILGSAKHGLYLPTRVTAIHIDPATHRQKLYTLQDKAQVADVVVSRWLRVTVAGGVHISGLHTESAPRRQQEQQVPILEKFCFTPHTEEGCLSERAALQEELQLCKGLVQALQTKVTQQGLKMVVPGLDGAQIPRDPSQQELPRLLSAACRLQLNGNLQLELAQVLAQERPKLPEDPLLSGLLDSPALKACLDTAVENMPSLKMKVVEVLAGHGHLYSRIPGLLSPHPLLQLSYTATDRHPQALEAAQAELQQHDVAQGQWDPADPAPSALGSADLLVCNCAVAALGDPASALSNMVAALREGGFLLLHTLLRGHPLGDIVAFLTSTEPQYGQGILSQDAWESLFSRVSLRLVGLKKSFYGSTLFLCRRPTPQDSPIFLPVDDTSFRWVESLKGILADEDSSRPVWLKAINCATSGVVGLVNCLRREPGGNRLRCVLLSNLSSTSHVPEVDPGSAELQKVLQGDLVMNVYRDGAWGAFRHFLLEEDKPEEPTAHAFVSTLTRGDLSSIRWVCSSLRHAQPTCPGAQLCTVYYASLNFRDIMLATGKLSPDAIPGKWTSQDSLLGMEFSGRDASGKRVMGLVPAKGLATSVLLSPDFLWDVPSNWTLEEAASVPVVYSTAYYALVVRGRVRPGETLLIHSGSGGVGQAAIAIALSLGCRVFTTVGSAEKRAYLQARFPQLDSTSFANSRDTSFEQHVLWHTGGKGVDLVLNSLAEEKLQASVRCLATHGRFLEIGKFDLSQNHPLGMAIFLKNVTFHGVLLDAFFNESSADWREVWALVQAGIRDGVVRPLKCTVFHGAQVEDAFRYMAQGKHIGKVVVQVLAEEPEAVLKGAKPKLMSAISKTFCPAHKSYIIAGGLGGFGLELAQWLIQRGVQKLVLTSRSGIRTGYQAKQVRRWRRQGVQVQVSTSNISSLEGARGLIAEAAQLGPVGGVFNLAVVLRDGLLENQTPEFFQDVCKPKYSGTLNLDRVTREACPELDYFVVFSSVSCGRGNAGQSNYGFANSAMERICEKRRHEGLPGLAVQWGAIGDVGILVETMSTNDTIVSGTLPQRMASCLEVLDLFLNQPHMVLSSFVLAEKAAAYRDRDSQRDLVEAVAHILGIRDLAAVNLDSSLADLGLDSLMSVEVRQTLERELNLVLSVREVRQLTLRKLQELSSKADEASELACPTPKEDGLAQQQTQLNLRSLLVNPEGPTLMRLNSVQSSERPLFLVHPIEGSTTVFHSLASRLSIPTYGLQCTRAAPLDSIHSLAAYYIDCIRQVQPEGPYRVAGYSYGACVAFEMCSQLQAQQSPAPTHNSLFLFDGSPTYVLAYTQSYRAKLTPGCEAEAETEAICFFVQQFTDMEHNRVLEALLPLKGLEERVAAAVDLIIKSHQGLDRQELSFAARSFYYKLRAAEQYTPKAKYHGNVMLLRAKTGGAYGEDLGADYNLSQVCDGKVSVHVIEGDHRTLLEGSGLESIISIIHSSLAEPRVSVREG
T1 sequence (P49327 whole entry): as the sequence (P49327 whole entry, the tested form may be a part) above

pIC50 [1]	inhibition at 10 µM [1] [%]	IC50 [2] [nM]	IC50 [3] [nM]	IC50 [4] [nM]	Compound
~6.51	74	355	603	1950	Cc1ccc(C(=O)N2CCC(c3ccc(-c4cccs4)cc3)CC2)cc1NC(=O)c1ccc(NC(C)C)nc1 [Compound 236, 6-(isopropylamino)-N-(2-methyl-5-(4-(4-(thiophen-2-yl)phenyl)piperidine-1-carbonyl)phenyl)nicotinamide]
6.98	107	309	191	9330	CCCCCN1CCC(C(=O)Nc2cc(C(=O)N3CCC(c4ccc(-c5cnn(C)c5)cc4)CC3)ccc2C)C1 (stereo not shown) [Compound 215, N-(2-methyl-5-(4-(4-(1-methyl-1H-pyrazol-4-yl)phenyl)piperidine-1-carbonyl)phenyl)-1-pentylpyrrolidine-3-carboxamide]
7.25	103	355	~85.1	> 10000	Cc1ccc(C(=O)N2CC(c3ccc(-c4cccnc4N)cc3)C2)cc1NC(=O)c1ccc(Cl)nc1 [Compound 259, N-(5-(3-(4-(2-aminopyridin-3-yl)phenyl)azetidine-1-carbonyl)-2-methylphenyl)-6-chloronicotinamide]
7.24	112	339	302	> 10000	Cc1ccc(C(=O)N2CCC(c3ccc(-c4cnn(C)c4)cc3)CC2)cc1NC(=O)C1CCNC1 (stereo not shown) [Compound 170, N-(2-methyl-5-(4-(4-(1-methyl-1H-pyrazol-4-yl)phenyl)piperidine-1-carbonyl)phenyl)pyrrolidine-3-carboxamide]
7.27	109	100	72.4	5250	Cc1ccc(C(=O)N2CCC(c3ccc(-c4cnn(CC5CC5)c4)cc3)CC2)cc1NC(=O)c1ccc(NC(C)C)nc1 [Compound 249, N-(5-(4-(4-(1-(cyclopropylmethyl)-1H-pyrazol-4-yl)phenyl)piperidine-1-carbonyl)-2-methylphenyl)-6-(isopropylamino)nicotinamide]
7.21	104	170	105	> 10000	Cc1ccc(C(=O)N2CCC(c3ccc(-c4cnn(C)c4)cc3)CC2)cc1NC(=O)C1CCN(CC(C)C)C1 (stereo not shown) [Compound 188, 1-isobutyl-N-(2-methyl-5-(4-(4-(1-methyl-1H-pyrazol-4-yl)phenyl)piperidine-1-carbonyl)phenyl)pyrrolidine-3-carboxamide]
7.35	106	69.2	132	> 10000	Cc1ccc(C(=O)N2CCC(c3ccc(-n4ccnc4)cc3)C(C)(C)C2)cc1NC(=O)c1ccc(NC(C)C)nc1 (stereo not shown) [Compound #43, N-(5-(4-(4-(1H-imidazol-1-yl)phenyl)-3,3-dimethylpiperidine-1-carbonyl)-2-methylphenyl)-6-(isopropylamino)nicotinamide]
6.89	107	398	107	> 10000	Cc1ccc(C(=O)N2CCC(c3ccc(-c4cnn(C)c4)cc3)C2)cc1NC(=O)c1ccc(N2CCOCC2)nc1 (stereo not shown) [Compound 204, N-(2-methyl-5-(3-(4-(1-methyl-1H-pyrazol-4-yl)phenyl)pyrrolidine-1-carbonyl)phenyl)-6-morpholinonicotinamide]
7.62	113	72.4	39.8	> 10000	CCc1ccc(C(=O)N2CCC(c3ccc(-c4cnn(C)c4)cc3)CC2)cc1NC(=O)c1ccc(Cl)nc1 [Compound #255, 6-chloro-N-(2-ethyl-5-(4-(4-(1-methyl-1H-pyrazol-4-yl)phenyl)piperidine-1-carbonyl)phenyl)nicotinamide]
7.53	112	105	43.7	1380	Cc1ccc(C(=O)N2CCC(c3ccc(-c4cnn(-c5ccncc5)c4)cc3)CC2)cc1NC(=O)c1ccc(NC(C)C)nc1 [Compound 272, 6-(isopropylamino)-N-(2-methyl-5-(4-(4-(1-(pyridin-4-yl)-1H-pyrazol-4-yl)phenyl)piperidine-1-carbonyl)phenyl)nicotinamide]
7.19	116	200	234	> 10000	Cc1ccc(C(=O)N2CCC(c3ccc(-c4cnn(C)c4)cc3)CC2)cc1NC(=O)C1CN(C(=O)C2CC2)C1 [Compound 219, 1-(cyclopropanecarbonyl)-N-(2-methyl-5-(4-(4-(1-methyl-1H-pyrazol-4-yl)phenyl)piperidine-1-carbonyl)phenyl)azetidine-3-carboxamide]
7.16	102	141	148	2040	Cc1ccc(C(=O)N2CCC(c3ccc(-c4ccsc4)cc3)CC2)cc1NC(=O)c1ccc(NC(C)C)nc1 [Compound 223, 6-(isopropylamino)-N-(2-methyl-5-(4-(4-(thiophen-3-yl)phenyl)piperidine-1-carbonyl)phenyl)nicotinamide]

More lines, now with the values behind:

Compound	pIC50 [1]	inhibition at 10 µM [1] [%]	IC50 [2] [nM]	IC50 [3] [nM]	IC50 [4] [nM]
CC(C)Nc1ccc(C(=O)Nc2cc(C(=O)N3CCC(c4ccc(-c5cnn(C)c5)cc4)CC3)ccc2Cl)cn1 [Compound 69, N-(2-chloro-5-(4-(4-(1-methyl-1H-pyrazol-4-yl)phenyl)piperidine-1-carbonyl)phenyl)-6-(isopropylamino)nicotinamide]	7.54	98	41.7	75.9	7590
Cc1ccc(C(=O)N2CC(c3ccc(-c4cnn(C)c4)cc3)C2)cc1NC(=O)c1ccc(Cl)nc1 [Compound 4, 6-chloro-N-(2-methyl-5-(3-(4-(1-methyl-1H-pyrazol-4-yl)phenyl)azetidine-1-carbonyl)phenyl)nicotinamide]	7.40	109	97.7	174	> 10000
Cc1ccc(C(=O)N2CC(c3ccc(-c4cnn(C)c4)cc3)C2)cc1NC(=O)c1cnc(NC(C)C)nc1 [Compound 158, 2-(isopropylamino)-N-(2-methyl-5-(3-(4-(1-methyl-1H-pyrazol-4-yl)phenyl)azetidine-1-carbonyl)phenyl)pyrimidine-5-carboxamide]	7.63	102	37.2	10	> 10000
Cc1ccc(C(=O)N2CC(c3ccc(-c4ccnn4C)cc3)C2)cc1NC(=O)c1ccc(N2CCCCC2)nc1 [Compound 57, N-(2-methyl-5-(3-(4-(1-methyl-1H-pyrazol-5-yl)phenyl)azetidine-1-carbonyl)phenyl)-6-(piperidin-1-yl)nicotinamide]	7.60	106	25.7	45.7	6310
Cc1ccc(C(=O)N2CCC(c3ccc(-c4cnn(C)c4)cc3)CC2)cc1NC(=O)C1CCCC1 [Compound 88, N-(2-methyl-5-(4-(4-(1-methyl-1H-pyrazol-4-yl)phenyl)piperidine-1-carbonyl)phenyl)cyclopentanecarboxamide]	7.45	100	126	209	> 10000
Cc1ccc(C(=O)N2CCC(c3ccc(-c4ccnn4C)cc3)CC2)cc1NC(=O)c1ccc(NC(C)C)nc1 [Compound 44, 6-(Isopropylamino)-N-(2-methyl-5-(4-(4-(1-methyl-1H-pyrazol-5-yl)phenyl)piperidine-1-carbonyl)phenyl)nicotinamide]	7.21	102	89.1	155	> 10000
Cc1ccc(C(=O)N2CC(c3ccc(-c4ccnn4C)cc3)C2)cc1NC(=O)c1ccc(N(C)C2CCN(C)CC2)nc1 [Compound 61, 6-(methyl(1-methylpiperidin-4-yl)amino)-N-(2-methyl-5-(3-(4-(1-methyl-1H-pyrazol-5-yl)phenyl)azetidine-1-carbonyl)phenyl)nicotinamide]	7.81	103	69.2	~91.2	11000
Cc1ccc(C(=O)N2CCC(c3ccc(-c4cnn(C)c4)cc3)CC2)cc1NC(=O)c1ccc(N(C)C(C)C)nc1 [Compound 92, 6-(Isopropyl(methyl)amino)-N-(2-methyl-5-(4-(4-(1-methyl-1H-pyrazol-4-yl)phenyl)piperidine-1-carbonyl)phenyl)nicotinamide]	7.79	100	30.9	9.12	6030
